Reference: paper PMC9545781 (British Journal of Clinical Pharmacology, 2022)

Columns and labels:
TSPO [1] = assay: Estimates of TSPO occupancy from plasma concentration and binding affinity; set-up: species or system human; conditions: 90 mg oral XBD173
[2] = Open-label clinical pharmacokinetic study of oral XBD173 and etifoxine in healthy volunteers (plasma LC-MSMS); type: in vivo, human; conditions: for AUClast / AUC(0-t) / Cmax / Tmax: 90 mg XBD173 single oral dose
Method: This was a single centre, open‐label study enrolling 4 adult healthy volunteers (aged 35–65 y) irrespective of rs6971 genotype. Detailed inclusion and exclusion criteria are shown in the supplementary information. […] As a precaution, therefore, a long washout period was chosen. The first dose was taken at the clinical research facility and the participant was monitored for 4 hours. Subsequent doses were taken at home by the participant. On day 7, the participant returned for a final assessment. […] The PI of the study was Paul M. Matthews (DPhil, FRCP, FMedSci) who is an author on the manuscript.
Plasma samples for pharmacokinetic analysis were obtained on day 1 at 0.5, 1, 2, 3, 4 hours following the first dose. […] Plasma samples were stored at −20°C or lower until analysis. Plasma samples (25 μL) were prepared for analysis by protein precipitation with acetonitrile containing internal standard (tolbutamide; 200 μL) followed by mixing (150 rpm, 15 min) and centrifugation (1500 g, 15 min). The supernatant (50) μL was diluted with water (100 μL) and mixed (100 rpm, 15 min). […] Injection volume was 1 μL.

TSPO [3] = conditions: cited from earlier work
in vitro = conditions: plasma, pH 7.4
Method: (§1) Plasma protein binding was measured by equilibrium dialysis using 96‐well plate blocks with 2 compartments separated by a vertical cylinder of dialysis membrane (molecular weight cut off ~8000 Da; ThermoFisher Scientific). […] The unit was covered and incubated at 37°C on an orbital shaker for 4 hours. After incubation, samples from both plasma (bound) chamber and the buffer (free) chamber were taken and matrix‐matched by addition of the alternative blank matrix. Acetonitrile containing internal standard was added to all samples. […] The ratio of responses in free to bound samples equates to the free fraction.

[4] = set-up: method as in PMID 19541954; conditions: cited from earlier work
[5] = Plasma protein binding by equilibrium dialysis; conditions: plasma spiked at 1 μM, 37°C, 4 hours, mean (SEM)
Method: as §1

[6] = human, plasma, po, 90 mg, 90mg XBD173 single oral dose, Mean (SEM)
[7] = human, plasma, po, 90 mg, 90mg XBD173 single oral dose, participant 1
[8] = human, plasma, po, 90 mg, 90mg XBD173 single oral dose, participant 2
[9] = human, plasma, po, 90 mg, 90mg XBD173 single oral dose, participant 3
[10] = human, plasma, po, 90 mg, 90mg XBD173 single oral dose, participant 4
[11] = human, plasma, po, 90 mg, Median of 4 participants
[12] = human, plasma, po, 90 mg, participant 1
[13] = human, plasma, po, 90 mg, participant 2
[14] = human, plasma, po, 90 mg, participant 3
[15] = human, plasma, po, 90 mg, participant 4

In the case of `CCN(Cc1ccccc1)C(=O)Cn1c(=O)n(C)c2cnc(-c3ccccc3)nc21` [XBD173], the “Predicted TSPO occupancy” value (TSPO [1]; from free plasma concentration, in HABs) is reported as ~ 30%, the “Predicted TSPO occupancy from total plasma concentration” value (TSPO [1]; total plasma concentration ~320 nM) is reported as > 99% and the AUClast ([2]; plasma, Max of 4 participants) is reported as 556 ng·h/mL. For the same molecule, the AUClast ([2]; plasma, Min of 4 participants) was 74 ng·h/mL, the “Estimate of plasma concentration (total)” value ([2]; 90 mg oral XBD173) was ~ 320 nM and the Adverse events ([2]; 4 healthy volunteers, XBD173 90 mg once daily 7 days and etifoxine 50 mg TDS 7 days) was “No adverse events were reported”. The concentration at 30 min ([2]; human, plasma, po, 90 mg, 90mg XBD173 single oral dose, 30 mins, participant 2) was 5.7 ng/mL, the concentration at 60 min [2, 6] was 31.2 ng/mL and the concentration at 60 min [2, 7] was 28.4 ng/mL. For the same molecule, the concentration at 60 min [2, 8] was 15.4 ng/mL, the concentration at 60 min [2, 9] was 62.7 ng/mL and the concentration at 60 min [2, 10] was 18.4 ng/mL. The concentration at 120 min [2, 6] was 106 ng/mL, the concentration at 120 min [2, 7] was 55.8 ng/mL and the concentration at 120 min [2, 8] was 24.2 ng/mL. For the same molecule, the concentration at 120 min [2, 9] was 263 ng/mL, the concentration at 120 min [2, 10] was 82.7 ng/mL and the concentration at 180 min [2, 6] was 99.7 ng/mL. It also gave a concentration at 180 min [2, 7] of 43.3 ng/mL, a concentration at 180 min [2, 8] of 23 ng/mL and a concentration at 180 min [2, 9] of 161 ng/mL. The concentration at 180 min [2, 10] was 171 ng/mL, the concentration at 240 min [2, 6] was 87.6 ng/mL and the concentration at 240 min [2, 7] was 40.4 ng/mL. It also gave a concentration at 240 min [2, 8] of 24.5 ng/mL, a concentration at 240 min [2, 9] of 139 ng/mL and a concentration at 240 min [2, 10] of 146 ng/mL. The AUC(0-t) [2, 11] was 247 ng·h/mL, the Cmax [2, 11] was 114 ng/mL and the Tmax [2, 11] was 2.5 h. The AUC(0-t) [2, 12] was 148 ng·h/mL, the Cmax [2, 12] was 56 ng/mL and the Tmax [2, 12] was 2 h. The AUC(0-t) [2, 13] was 74 ng·h/mL, the Cmax [2, 13] was 25 ng/mL and the Tmax [2, 13] was 4 h. For the same molecule, the AUC(0-t) [2, 14] was 556 ng·h/mL, the Cmax [2, 14] was 263 ng/mL and the Tmax [2, 14] was 2 h. The AUC(0-t) [2, 15] was 345 ng·h/mL, the Cmax [2, 15] was 171 ng/mL and the Tmax [2, 15] was 3 h. The “Affinity for TSPO in the human brain” value (TSPO [3]) was 2 to 3 nM, the fraction unbound at 4 h, 1 μM (in vitro) was 0.0034 and the Peak plasma concentrations ([4]; 90‐mg dose) was “micromolar range”. For the same molecule, the Plasma concentration reached ([4]; 90‐mg dose) was 1 µM, the “Accumulation on repeated dosing” value [4] was “does not accumulate” and the “Fraction in plasma bound” value [5] was 99.66%.
